Measured values as given in the NIST ThermoML archive (doi:10.1016/j.jct.2013.01.012).

Experiments:
[1] = refractive index (Na D-line) (dimensionless); mn = molality of the nth substance listed, in mol/kg; settings: 101 kPa, Liquid, Standard Abbe refractometry
[2] = mn = molality of the nth substance listed, in mol/kg; settings: 101 kPa, Liquid; for speed of sound: Sing-around technique in a fixed-path interferometer; for mass density: Vibrating tube method

O=P(O)(O)O [phosphoric acid] + O
Settings | mass density, 298.15 K [kg/m3] | mass density, 303.15 K [kg/m3] | mass density, 308.15 K [kg/m3] | refractive index, 298.15 K | refractive index, 303.15 K | refractive index, 308.15 K | speed of sound, 298.15 K [m/s] | speed of sound, 303.15 K [m/s] | speed of sound, 308.15 K [m/s]
[1], m1 = 0.1 | – | – | – | 1.3334 | 1.3329 | 1.3323 | – | – | –
[1], m1 = 0.3 | – | – | – | 1.335 | 1.3345 | 1.3339 | – | – | –
[1], m1 = 0.5 | – | – | – | 1.3366 | 1.336 | 1.3356 | – | – | –
[1], m1 = 0.7 | – | – | – | 1.3381 | 1.3376 | 1.3371 | – | – | –
[1], m1 = 0.9 | – | – | – | 1.3397 | 1.3393 | 1.3388 | – | – | –
[2], m1 = 0.1 | 1002.05 | 1000.62 | 998.962 | – | – | – | 1497.1 | 1509.2 | 1519.7
[2], m1 = 0.3 | 1011.37 | 1009.93 | 1008.27 | – | – | – | 1498.3 | 1510.2 | 1520.4
[2], m1 = 0.5 | 1021.09 | 1019.94 | 1018.07 | – | – | – | 1500 | 1511.6 | 1521.6
[2], m1 = 0.7 | 1030.49 | 1029.49 | 1028.12 | – | – | – | 1502 | 1513.2 | 1523
[2], m1 = 0.9 | 1040.62 | 1039.05 | 1037.8 | – | – | – | 1504.2 | 1515.1 | 1524.6

O=P([O-])(O)O.[Na+] [sodium dihydrogen phosphate] + O
Settings | mass density, 298.15 K [kg/m3] | mass density, 303.15 K [kg/m3] | mass density, 308.15 K [kg/m3] | refractive index, 298.15 K | refractive index, 303.15 K | refractive index, 308.15 K | speed of sound, 298.15 K [m/s] | speed of sound, 303.15 K [m/s] | speed of sound, 308.15 K [m/s]
[1], m1 = 0.1 | – | – | – | 1.3346 | 1.334 | 1.3335 | – | – | –
[1], m1 = 0.3 | – | – | – | 1.3381 | 1.3376 | 1.3371 | – | – | –
[1], m1 = 0.5 | – | – | – | 1.3408 | 1.3412 | 1.3398 | – | – | –
[1], m1 = 0.7 | – | – | – | 1.344 | 1.3435 | 1.3428 | – | – | –
[1], m1 = 0.9 | – | – | – | 1.3492 | 1.3473 | 1.3466 | – | – | –
[2], m1 = 0.1 | 1006.23 | 1005.17 | 1004.2 | – | – | – | 1507.1 | 1519.2 | 1529.8
[2], m1 = 0.3 | 1024.26 | 1022.91 | 1021.13 | – | – | – | 1527.2 | 1538.5 | 1548.1
[2], m1 = 0.5 | 1043.03 | 1041.67 | 1039.97 | – | – | – | 1547.3 | 1558.2 | 1567.3
[2], m1 = 0.7 | 1062.08 | 1060.86 | 1060.09 | – | – | – | 1567.7 | 1577.8 | 1587.9
[2], m1 = 0.9 | 1081.28 | 1079.48 | 1080.28 | – | – | – | 1587.8 | 1579.2 | 1608.1

O=P([O-])([O-])[O-].[K+].[K+].[K+] [tripotassium phosphate] + O
Settings | mass density, 298.15 K [kg/m3] | mass density, 303.15 K [kg/m3] | mass density, 308.15 K [kg/m3] | refractive index, 298.15 K | refractive index, 303.15 K | refractive index, 308.15 K | speed of sound, 298.15 K [m/s] | speed of sound, 303.15 K [m/s] | speed of sound, 308.15 K [m/s]
[1], m1 = 0.1 | – | – | – | 1.3365 | 1.3357 | 1.3351 | – | – | –
[1], m1 = 0.3 | – | – | – | 1.344 | 1.3435 | 1.3426 | – | – | –
[1], m1 = 0.5 | – | – | – | 1.3517 | 1.351 | 1.3502 | – | – | –
[1], m1 = 0.7 | – | – | – | 1.3595 | 1.3588 | 1.3581 | – | – | –
[1], m1 = 0.9 | – | – | – | 1.3671 | 1.3667 | 1.3659 | – | – | –
[2], m1 = 0.1 | 1017.14 | 1015.62 | 1013.92 | – | – | – | 1518.2 | 1529.8 | 1539.7
[2], m1 = 0.3 | 1057.82 | 1056.83 | 1054.87 | – | – | – | 1559.7 | 1570.2 | 1578.9
[2], m1 = 0.5 | 1101.23 | 1100.46 | 1098.72 | – | – | – | 1603 | 1616.1 | 1622.8
[2], m1 = 0.7 | 1145.91 | 1145.57 | 1144.26 | – | – | – | 1658.8 | 1666.7 | 1671.9
[2], m1 = 0.9 | 1191.53 | 1191.62 | 1190.09 | – | – | – | 1716.6 | 1723.7 | 1725.1

O=P([O-])([O-])[O-].[Na+].[Na+].[Na+] [trisodium phosphate] + O
Settings | mass density, 298.15 K [kg/m3] | mass density, 303.15 K [kg/m3] | mass density, 308.15 K [kg/m3] | refractive index, 298.15 K | refractive index, 303.15 K | refractive index, 308.15 K | speed of sound, 298.15 K [m/s] | speed of sound, 303.15 K [m/s] | speed of sound, 308.15 K [m/s]
[1], m1 = 0.1 | – | – | – | 1.3365 | 1.3358 | 1.3353 | – | – | –
[1], m1 = 0.3 | – | – | – | 1.3439 | 1.3431 | 1.3425 | – | – | –
[1], m1 = 0.5 | – | – | – | 1.3515 | 1.3506 | 1.35 | – | – | –
[1], m1 = 0.7 | – | – | – | 1.3588 | 1.3581 | 1.3574 | – | – | –
[1], m1 = 0.9 | – | – | – | 1.3664 | 1.3671 | 1.3653 | – | – | –
[2], m1 = 0.1 | 1015.18 | 1013.87 | 1012.26 | – | – | – | 1519.7 | 1531.5 | 1541.8
[2], m1 = 0.3 | 1052.41 | 1051.09 | 1049.48 | – | – | – | 1563.1 | 1573.9 | 1583.5
[2], m1 = 0.5 | 1091.06 | 1090.82 | 1089.21 | – | – | – | 1608.9 | 1619.9 | 1628.3
[2], m1 = 0.7 | 1130.08 | 1129.51 | 1131.08 | – | – | – | 1658.1 | 1667.3 | 1677.7
[2], m1 = 0.9 | 1173.67 | 1169.99 | 1167.45 | – | – | – | 1716.9 | 1722.6 | 1727.6
